In patent US20240270821A1, “GIP/GLP1/GCG TRI-RECEPTOR AGONISTS AND USES THEREOF” (priority 2023, published 2024):
Read-outs that look alike come from different tables or passages of the source. Starred links: 1 amine or outer side, 2 acyl side, 3 side chain; linkers in the order of their positions; H or OH if unused. Non-standard residues stand in square brackets, D forms with d. Residues, ends and D or L forms follow the SMILES beside them. Groups on a side chain read outwards from the residue. No end group written: not given here. *: point of attachment. C20 diacid = O=C(O)CCCCCCCCCCCCCCCCCCC(=O)*; C18 diacid = O=C(O)CCCCCCCCCCCCCCCCC(=O)*; αMePhe(2-F) = C[C@](N)(Cc1ccccc1F)C(=O)O; γGlu = O=C(O)[C@H](CCC(=O)[*:2])N[*:1]; αMe4Pal = C[C@](N)(Cc1ccncc1)C(=O)O; αMeY = C[C@](N)(Cc1ccc(O)cc1)C(=O)O; αMeF = C[C@](N)(Cc1ccccc1)C(=O)O; 4Pal = N[C@@H](Cc1ccncc1)C(=O)O; αMeL = CC(C)C[C@](C)(N)C(=O)O; αMeS = C[C@](N)(CO)C(=O)O; Orn = NCCC[C@H](N)C(=O)O; AEEA = NCCOCCOCC(=O)O; Aib = CC(C)(N)C(=O)O

How the values were obtained:
Format in all cases: cell-based
hGcgR = hGcgR (Homo sapiens, UniProt P47871); assay: Functional cAMP activation in the presence of 0.1% casein (no HSA); settings: read-out: Relative cAMP EC50, hGcgR;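 further: intracellular cAMP rise after 30 min at 37 °C, read by HTRF against a cAMP standard curve, scaled from buffer only (0%) to maximal control ligand response (100%)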
Sequence of hGcgR (P47871 26-477): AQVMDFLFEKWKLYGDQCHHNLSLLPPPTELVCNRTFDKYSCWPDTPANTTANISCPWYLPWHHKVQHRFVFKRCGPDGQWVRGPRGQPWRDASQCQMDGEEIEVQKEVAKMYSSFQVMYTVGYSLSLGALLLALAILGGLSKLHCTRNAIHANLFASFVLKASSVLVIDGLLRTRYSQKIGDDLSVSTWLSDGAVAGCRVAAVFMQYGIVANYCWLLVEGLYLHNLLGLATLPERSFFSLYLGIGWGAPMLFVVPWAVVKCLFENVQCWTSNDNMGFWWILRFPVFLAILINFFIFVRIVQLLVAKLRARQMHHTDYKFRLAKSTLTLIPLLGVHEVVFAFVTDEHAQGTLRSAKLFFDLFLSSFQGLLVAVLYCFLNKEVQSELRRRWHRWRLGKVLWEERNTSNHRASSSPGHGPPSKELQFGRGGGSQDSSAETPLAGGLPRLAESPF
Description: After a 30-minute incubation at 37° C., the resulting increase in intracellular cAMP is quantitatively determined using the CisBio CAMP Dynamic 2 HTRF Assay Kit (62AM4PEJ). Briefly, cAMP levels within the cell are detected by adding the cAMP-d2 conjugate in cell lysis buffer followed by the antibody anti-cAMP-Eu^3+-Cryptate, also in cell lysis buffer.
Intracellular cAMP levels are determined by extrapolation using a standard curve. Dose response curves of compounds are plotted as the percentage of stimulation normalized to minimum (buffer only) and maximum (maximum concentration of each control ligand) values and analyzed using a four parameter non-linear regression fit with a variable slope (Genedata Screener 13). EC50 is the concentration of compound causing half-maximal simulation in a dose response curve. Each relative EC50 value for the Geometric mean calculation is determined from a curve fitting.

human GcgR = human GcgR (Homo sapiens, UniProt P47871); assay: Functional cAMP activity in the presence of 1% HSA; settings: read-out: cAMP Rel EC50, hGcgR
Sequence of human GcgR (P47871 26-477): as above

hGIPR [1] = target: T1, hGIPR (Homo sapiens, UniProt P48546); assay: Functional cAMP activity in the presence of 1% HSA; settings: read-out: cAMP Rel EC50, hGIPR
T1 sequence (P48546 22-466): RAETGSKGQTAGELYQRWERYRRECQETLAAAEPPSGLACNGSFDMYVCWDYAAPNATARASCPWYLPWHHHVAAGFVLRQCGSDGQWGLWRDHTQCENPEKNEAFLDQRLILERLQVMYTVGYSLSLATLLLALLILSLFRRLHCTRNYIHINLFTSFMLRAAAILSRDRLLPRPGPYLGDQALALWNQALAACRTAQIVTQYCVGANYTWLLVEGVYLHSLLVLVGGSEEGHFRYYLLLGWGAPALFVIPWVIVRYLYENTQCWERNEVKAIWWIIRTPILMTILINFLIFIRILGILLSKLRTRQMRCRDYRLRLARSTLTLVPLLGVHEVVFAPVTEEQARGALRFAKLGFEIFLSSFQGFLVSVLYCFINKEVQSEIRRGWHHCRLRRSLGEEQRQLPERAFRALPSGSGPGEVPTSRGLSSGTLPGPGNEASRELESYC

hGLP-1R [2] = target: T2, hGLP-1R (Homo sapiens, UniProt P43220); assay: Functional cAMP activation in the presence of 0.1% casein (no HSA); settings: read-out: Relative cAMP EC50, hGLP-1R;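 further: intracellular cAMP rise after 30 min at 37 °C read by HTRF, normalized between buffer only (0%) and maximal control ligand (100%), four-parameter variable-slope fit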
T2 sequence (P43220 24-463): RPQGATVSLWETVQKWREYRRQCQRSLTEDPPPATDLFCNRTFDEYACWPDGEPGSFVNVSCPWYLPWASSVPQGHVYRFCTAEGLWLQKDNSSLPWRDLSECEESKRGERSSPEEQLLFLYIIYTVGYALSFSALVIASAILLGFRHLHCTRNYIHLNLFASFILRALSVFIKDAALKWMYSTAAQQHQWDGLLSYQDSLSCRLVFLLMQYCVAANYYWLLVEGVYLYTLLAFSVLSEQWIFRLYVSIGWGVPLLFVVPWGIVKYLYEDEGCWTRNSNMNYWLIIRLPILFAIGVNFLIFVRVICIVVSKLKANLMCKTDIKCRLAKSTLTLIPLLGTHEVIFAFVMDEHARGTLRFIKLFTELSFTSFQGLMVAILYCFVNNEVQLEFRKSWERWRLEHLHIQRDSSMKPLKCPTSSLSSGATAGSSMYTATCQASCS

hGIPR [3] = target: T1, hGIPR; assay: as above; settings: read-out: Relative cAMP EC50, hGIPR
hGLP-1R [4] = target: T2, hGLP-1R; assay: Functional cAMP activity in the presence of 1% HSA; settings: read-out: cAMP Rel EC50, hGLP-1R
[5] = in the presence of 0.1% casein (no HSA), geometric mean
[6] = 0.1% casein, no HSA, geometric mean
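Wherever Relative cAMP EC50, hGIPR is given: intracellular cAMP rise after 30 min at 37 °C read by HTRF against a standard curve, scaled between buffer alone (0%) and top control ligand concentration (100%), four-parameter fit.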

Molecule | EC50 (hGcgR; [5]) [nM] | EC50 (human GcgR) [nM] | EC50 (hGIPR [1]) [nM] | EC50 (hGLP-1R [2]; [5]) [nM] | EC50 (hGIPR [3]; [5]) [nM] | EC50 (hGLP-1R [4]) [nM] | EC50 (hGcgR) [nM] | EC50 (hGLP-1R [2]) [nM] | EC50 (hGIPR [3]) [nM] | EC50 (hGcgR; [6]) [nM] | EC50 (hGLP-1R [2]; [6]) [nM] | EC50 (hGIPR [3]; [6]) [nM]
H-Y[Aib]QGTFTSD[4Pal]SQ[αMeL]LDKK([Glu-γGlu-C18 diacid])AQ[αMe4Pal]AFIEYLIE[Aib]GPSSGAPPPSGS-NH2 [Example 894] | 6.09 | 2330 | 30.9 | 2.01 | 0.0752 | 711 | – | – | – | – | – | –
H-Y[Aib]QGT[αMePhe(2-F)]TSD[4Pal][αMeS]I[αMeL]LD[Orn]K([AEEA-AEEA-γGlu-C18 diacid])AQ[Aib][Orn]FIEYLIEGGPSSGEPPPSEG-NH2 [Example 491] | – | 159 | 0.688 | – | – | 9.55 | 1.58 | 0.17 | 0.0126 | – | – | –
Y[Aib]QGT[αMePhe(2-F)]TSD[4Pal][αMeS]I[αMeL]LD[Orn]K([AEEA-γGlu-C18 diacid])AQ[αMe4Pal]EFI[dE][αMeY]LIEGGPPS[Aib]EPPPEGE-NH2 [Example 1190] | 1.68 | 192 | 0.954 | 0.765 | 0.0109 | 77.4 | – | – | – | – | – | –
H-Y[Aib]QGTFTSD[4Pal]SQ[αMeL]LDKK([γGlu-γGlu-C18 diacid])AQ[αMe4Pal]AFIE[αMe4Pal]LIE[Aib]GPSSGEPPPSGEEE-NH2 [Example 1124] | 6.97 | 400 | 12 | 10.1 | 0.187 | 304 | – | – | – | – | – | –
Y[Aib]QGT[αMePhe(2-F)]TSD[4Pal][αMeS]I[αMeL]LD[Orn]QAQ[αMe4Pal]EFI[dE][αMeY]LIEGGPSSGAPPPSGGGE-NH2 [Example 1234] | – | 11.7 | 0.011 | – | – | 1.15 | – | – | – | 11.6 | 1.17 | 0.0135
H-Y[Aib]QGT[αMePhe(2-F)]TSD[4Pal]SI[αMeL]LD[Orn]K([AEEA-γGlu-C18 diacid])AQ[αMe4Pal][Orn]FI[dE][αMeY]LIEGGPSSGEPPPEAE-NH2 [Example 676] | – | 208 | 1.07 | – | – | 24.4 | 2.34 | 0.267 | 0.0106 | – | – | –
H-Y[Aib]QGTFTSDFS[Orn][αMeL]LDKK([AEEA-γGlu-C18 diacid])AQ[Aib]AFIE[αMeY]LIEGGPSSGAPPPSGS-NH2 [Example 839] | 5.05 | 1110 | 21.9 | 0.469 | 0.221 | 60.6 | – | – | – | – | – | –
H-Y[Aib]QGTFTSDFS[Orn][αMeL]LDKK([γGlu-AEEA-γGlu-C18 diacid])AQ[Aib]AFIEYLLE[Aib]GESSGAPPPSGS-NH2 [Example 244] | 4.81 | 1230 | 18.8 | 7.68 | 0.0972 | 645 | – | – | – | – | – | –
H-Y[Aib]QGT[αMePhe(2-F)]TSD[4Pal]SILLDKK([γGlu-γGlu-C18 diacid])AQ[Aib]AFIEWLQEGGPSSGEPPPSGTEE-NH2 [Example 579] | – | 679 | 3.79 | – | – | 67.3 | 2.36 | 0.252 | 0.0171 | – | – | –
H-Y[Aib]QGTFTSDFS[Orn][αMeL]LDKK([AEEA-γGlu-C18 diacid])AQ[αMe4Pal]AFIEYLIE[Aib]GPSSGAPPPSGS-NH2 [Example 811] | 0.724 | 175 | 25.8 | 1.48 | 0.14 | 246 | – | – | – | – | – | –
CC[C@H](C)[C@H](NC(=O)[C@H](Cc1ccccc1)NC(=O)[C@H](CC(N)=O)NC(=O)C(C)(C)NC(=O)[C@H](CCC(N)=O)NC(=O)[C@H](C)NC(=O)[C@H](CCCCNC(=O)CC[C@H](NC(=O)CC[C@H](NC(=O)CCCCCCCCCCCCCCCCC(=O)O)C(=O)O)C(=O)O)NC(=O)[C@H](CCCN)NC(=O)[C@H](CC(=O)O)NC(=O)[C@H](CC(C)C)NC(=O)[C@](C)(CC(C)C)NC(=O)[C@@H](NC(=O)[C@](C)(CO)NC(=O)[C@H](Cc1ccncc1)NC(=O)[C@H](CC(=O)O)NC(=O)[C@H](CO)NC(=O)[C@@H](NC(=O)[C@](C)(Cc1ccccc1F)NC(=O)[C@@H](NC(=O)CNC(=O)[C@H](CCC(N)=O)NC(=O)C(C)(C)NC(=O)[C@@H](N)Cc1ccc(O)cc1)[C@@H](C)O)[C@@H](C)O)[C@@H](C)CC)C(=O)N[C@H](CCC(=O)O)C(=O)N[C@@](C)(Cc1ccc(O)cc1)C(=O)N[C@@H](CC(C)C)C(=O)N[C@@H](CCC(N)=O)C(=O)N[C@@H](CCC(=O)O)C(=O)NCC(=O)NCC(=O)N1CCC[C@H]1C(=O)N[C@@H](CO)C(=O)N[C@@H](CO)C(=O)NCC(=O)N[C@@H](CCC(=O)O)C(=O)N1CCC[C@H]1C(=O)N1CCC[C@H]1C(=O)N1CCC[C@H]1C(=O)N[C@@H](CCC(=O)O)C(N)=O [Example 450] (H-Y[Aib]QGT[αMePhe(2-F)]TSD[4Pal][αMeS]I[αMeL]LD[Orn]K([γGlu-γGlu-C18 diacid])AQ[Aib]NFI[dE][αMeY]LQEGGPSSGEPPPE-NH2) | – | 553 | 3.75 | – | – | 18.4 | 4.84 | 0.43 | 0.0448 | – | – | –
H-Y[Aib]QGTFTSD[4Pal]SQ[αMeL]LD[Orn]K([AEEA-γGlu-C18 diacid])AQ[αMe4Pal]QFIE[αMeY]LIEGGPSSGAPPPSGS-NH2 [Example 857] | 6.21 | 1050 | 36.1 | 0.433 | 0.441 | 87.3 | – | – | – | – | – | –
H-Y[Aib]QGTFTSD[4Pal]SQ[αMeL]LD[Orn]K([γGlu-γGlu-C18 diacid])AQ[αMe4Pal]AFIE[αMeY]LIE[Aib]GPSSGEPPPSGSEE-NH2 [Example 1093] | 7.72 | 958 | 26.8 | 0.954 | 0.152 | 141 | – | – | – | – | – | –
Y[Aib]QGT[αMePhe(2-F)]TSD[4Pal][αMeS]I[αMeL]LD[Orn]K([AEEA-γGlu-C18 diacid])AQ[αMe4Pal]EFI[dE][αMeY]LIEGGPSSGEPPPESE-NH2 [Example 1147] | 1.17 | 167 | 0.831 | 0.347 | 0.00753 | 45.4 | – | – | – | – | – | –
H-Y[Aib]QGTFTSD[4Pal]S[Orn][αMeL]LDKK([AEEA-γGlu-γGlu-C18 diacid])AQ[αMe4Pal]AFIE[αMe4Pal]LIE[Aib]GPSSGEPPPSGSE-NH2 [Example 988] | 2.52 | 320 | 11.8 | 9.5 | 0.198 | 743 | – | – | – | – | – | –
CC[C@H](C)[C@H](NC(=O)[C@H](Cc1ccccc1)NC(=O)[C@H](C)NC(=O)C(C)(C)NC(=O)[C@H](CCC(N)=O)NC(=O)[C@H](C)NC(=O)[C@H](CCCCNC(=O)COCCOCCNC(=O)CC[C@H](NC(=O)CCCCCCCCCCCCCCCCC(=O)O)C(=O)O)NC(=O)[C@H](CCCN)NC(=O)[C@H](CC(=O)O)NC(=O)[C@H](CC(C)C)NC(=O)[C@](C)(CC(C)C)NC(=O)[C@@H](NC(=O)[C@](C)(CO)NC(=O)[C@H](Cc1ccc(O)cc1)NC(=O)[C@H](CC(=O)O)NC(=O)[C@H](CO)NC(=O)[C@@H](NC(=O)[C@](C)(Cc1ccccc1)NC(=O)[C@@H](NC(=O)CNC(=O)[C@H](CCC(N)=O)NC(=O)C(C)(C)NC(=O)[C@@H](N)Cc1ccc(O)cc1)[C@@H](C)O)[C@@H](C)O)[C@@H](C)CC)C(=O)N[C@H](CCC(=O)O)C(=O)N[C@@H](Cc1ccc(O)cc1)C(=O)N[C@@H](CC(C)C)C(=O)N[C@@H](CC(C)C)C(=O)N[C@@H](CCC(=O)O)C(=O)NCC(=O)NCC(=O)N1CCC[C@H]1C(=O)N[C@@H](CO)C(=O)N[C@@H](CO)C(=O)NCC(=O)N[C@@H](CCC(=O)O)C(=O)N1CCC[C@H]1C(=O)N1CCC[C@H]1C(=O)N1CCC[C@H]1C(=O)N[C@@H](CCC(=O)O)C(N)=O [Example 420] (H-Y[Aib]QGT[αMeF]TSDY[αMeS]I[αMeL]LD[Orn]K([AEEA-γGlu-C18 diacid])AQ[Aib]AFI[dE]YLLEGGPSSGEPPPE-NH2) | – | 433 | 2.61 | – | – | 31.3 | 2.49 | 0.205 | 0.0131 | – | – | –
Y[Aib]QGTFTSDFSK[αMeL]LDKK([AEEA-γGlu-C20 diacid])AQ[Aib]AFIEYLLEGGPSSGEPPPTEG-NH2 [Example 36] | 4.32 | 1330 | 170 | 3.57 | 0.482 | 1360 | – | – | – | – | – | –
H-Y[Aib]QGT[αMePhe(2-F)]TSD[4Pal][αMeS]I[αMeL]LD[Orn]K([AEEA-γGlu-C18 diacid])AQ[αMe4Pal]EFI[dE][αMeY]LIEGGPSSGEPPPGGE-NH2 [Example 1145] | 1.07 | 148 | 0.848 | 0.313 | 0.00689 | 39.1 | – | – | – | – | – | –
